What was measured:
Rattus norvegicus = test: In vivo activity in mCPP challenge test were performed in male Wistar rats by subcutaneous administration; format: functional; settings: sc
[1] = target: T1, 5-hydroxytryptamine receptor 2C (Rattus norvegicus) (UniProt P08909); test: In vivo activity in rat mCPP challenge test following p.o. administration.; format: functional, organism-based
T1 sequence (whole entry): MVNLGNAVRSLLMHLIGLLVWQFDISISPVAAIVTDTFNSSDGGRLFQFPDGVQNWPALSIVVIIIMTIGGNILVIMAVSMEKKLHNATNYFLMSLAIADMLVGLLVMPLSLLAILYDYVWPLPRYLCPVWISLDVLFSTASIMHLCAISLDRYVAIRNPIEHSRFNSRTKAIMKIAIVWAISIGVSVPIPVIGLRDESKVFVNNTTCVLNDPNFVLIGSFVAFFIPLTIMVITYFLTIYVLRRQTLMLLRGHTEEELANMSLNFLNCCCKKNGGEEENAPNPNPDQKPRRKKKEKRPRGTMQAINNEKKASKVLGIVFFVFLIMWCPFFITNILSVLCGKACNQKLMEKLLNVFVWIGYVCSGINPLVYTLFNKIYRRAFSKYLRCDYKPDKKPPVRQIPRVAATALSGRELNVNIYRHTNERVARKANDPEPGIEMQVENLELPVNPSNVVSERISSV

[2] = target: 5-hydroxytryptamine receptor 2A (Homo sapiens, UniProt P28223); test: Binding affinity at human cloned 5-hydroxytryptamine 2A receptor expressed in L929 cells by [125I]R91150 displacement.; format: cell-based
Chain of 5-hydroxytryptamine receptor 2A (P28223 whole entry): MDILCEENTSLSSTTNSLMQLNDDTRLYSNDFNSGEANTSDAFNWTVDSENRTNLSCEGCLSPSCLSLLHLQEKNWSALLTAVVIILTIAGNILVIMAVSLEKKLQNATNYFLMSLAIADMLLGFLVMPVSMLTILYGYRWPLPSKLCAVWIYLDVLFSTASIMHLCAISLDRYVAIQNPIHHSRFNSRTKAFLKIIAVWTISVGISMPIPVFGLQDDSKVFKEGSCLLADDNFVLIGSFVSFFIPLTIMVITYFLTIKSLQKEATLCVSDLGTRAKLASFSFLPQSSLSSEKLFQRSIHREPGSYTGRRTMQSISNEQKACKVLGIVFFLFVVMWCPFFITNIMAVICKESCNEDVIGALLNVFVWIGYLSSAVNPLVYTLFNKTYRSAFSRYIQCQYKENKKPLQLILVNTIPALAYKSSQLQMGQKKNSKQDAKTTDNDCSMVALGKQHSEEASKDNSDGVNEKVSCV

[3] = target: T2, 5-hydroxytryptamine receptor 2C (Homo sapiens, UniProt P28335); test: Binding affinity at human cloned 5-hydroxytryptamine 2C receptor expressed in CHO cells by [3H]mesulergine displacement.; format: cell-based
T2 sequence (P28335 whole entry): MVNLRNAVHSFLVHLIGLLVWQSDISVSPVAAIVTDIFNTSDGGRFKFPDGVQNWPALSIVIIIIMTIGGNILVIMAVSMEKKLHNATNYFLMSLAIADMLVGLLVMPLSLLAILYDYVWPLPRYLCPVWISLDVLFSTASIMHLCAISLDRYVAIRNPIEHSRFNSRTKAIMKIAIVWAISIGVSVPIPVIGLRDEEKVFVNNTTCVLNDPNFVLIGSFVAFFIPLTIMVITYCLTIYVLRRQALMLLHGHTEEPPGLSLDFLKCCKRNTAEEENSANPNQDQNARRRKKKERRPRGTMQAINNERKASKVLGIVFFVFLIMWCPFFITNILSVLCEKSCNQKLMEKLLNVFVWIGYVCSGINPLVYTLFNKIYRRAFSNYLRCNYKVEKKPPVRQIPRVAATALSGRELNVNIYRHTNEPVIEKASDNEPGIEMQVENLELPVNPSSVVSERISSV

Histamine H1 receptor = Histamine H1 receptor (Homo sapiens, UniProt P35367); test: Binding affinity at human cloned Histamine H1 receptor expressed in CHO cells by [3H]pyrilamine displacement.; format: cell-based
Chain of Histamine H1 receptor (P35367 whole entry): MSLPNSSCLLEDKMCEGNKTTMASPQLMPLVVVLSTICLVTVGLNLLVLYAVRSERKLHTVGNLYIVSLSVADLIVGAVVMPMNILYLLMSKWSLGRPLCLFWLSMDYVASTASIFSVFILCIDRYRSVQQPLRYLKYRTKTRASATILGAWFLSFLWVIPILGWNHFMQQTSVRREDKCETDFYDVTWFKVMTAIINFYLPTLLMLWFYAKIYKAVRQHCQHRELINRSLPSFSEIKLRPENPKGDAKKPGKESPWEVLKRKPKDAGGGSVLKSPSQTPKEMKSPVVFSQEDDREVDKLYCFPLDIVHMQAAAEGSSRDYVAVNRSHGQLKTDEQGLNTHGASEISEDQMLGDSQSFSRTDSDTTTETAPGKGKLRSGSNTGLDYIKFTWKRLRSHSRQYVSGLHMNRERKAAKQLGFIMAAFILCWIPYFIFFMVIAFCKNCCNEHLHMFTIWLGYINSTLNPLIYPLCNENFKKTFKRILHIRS

D(3) dopamine receptor = D(3) dopamine receptor (Homo sapiens, UniProt P35462); test: Binding affinity for human cloned Dopamine receptor D3
Chain of D(3) dopamine receptor (P35462 whole entry): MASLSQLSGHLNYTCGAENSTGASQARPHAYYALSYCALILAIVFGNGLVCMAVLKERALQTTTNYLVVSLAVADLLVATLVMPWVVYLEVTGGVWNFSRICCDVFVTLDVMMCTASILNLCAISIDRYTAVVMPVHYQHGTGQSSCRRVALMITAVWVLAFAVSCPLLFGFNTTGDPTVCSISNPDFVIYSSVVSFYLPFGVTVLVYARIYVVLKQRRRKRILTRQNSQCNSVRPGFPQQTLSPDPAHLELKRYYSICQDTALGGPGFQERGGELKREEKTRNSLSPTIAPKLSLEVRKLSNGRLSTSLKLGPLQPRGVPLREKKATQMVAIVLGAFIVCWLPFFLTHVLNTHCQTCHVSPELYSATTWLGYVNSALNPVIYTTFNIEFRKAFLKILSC

D(4) dopamine receptor = target: T3, D(4) dopamine receptor (Homo sapiens, UniProt P21917); test: Binding affinity for human cloned Dopamine receptor D4
T3 sequence (P21917 whole entry): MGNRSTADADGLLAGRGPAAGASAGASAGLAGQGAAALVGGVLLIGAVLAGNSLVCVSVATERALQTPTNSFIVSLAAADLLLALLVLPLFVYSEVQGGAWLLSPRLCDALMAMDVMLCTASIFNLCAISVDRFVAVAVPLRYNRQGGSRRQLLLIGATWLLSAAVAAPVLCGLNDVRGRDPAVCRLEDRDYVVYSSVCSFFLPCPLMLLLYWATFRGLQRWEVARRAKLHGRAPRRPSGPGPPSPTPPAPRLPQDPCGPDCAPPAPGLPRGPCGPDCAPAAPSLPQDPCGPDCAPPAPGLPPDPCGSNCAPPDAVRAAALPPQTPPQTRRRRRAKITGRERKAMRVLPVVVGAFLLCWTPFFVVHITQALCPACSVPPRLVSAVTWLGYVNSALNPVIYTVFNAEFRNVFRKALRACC

[4] = target: T4, 5-hydroxytryptamine receptor 1A (Homo sapiens, UniProt P08908); test: Binding affinity for human cloned 5-hydroxytryptamine 1A receptor
T4 sequence (P08908 whole entry): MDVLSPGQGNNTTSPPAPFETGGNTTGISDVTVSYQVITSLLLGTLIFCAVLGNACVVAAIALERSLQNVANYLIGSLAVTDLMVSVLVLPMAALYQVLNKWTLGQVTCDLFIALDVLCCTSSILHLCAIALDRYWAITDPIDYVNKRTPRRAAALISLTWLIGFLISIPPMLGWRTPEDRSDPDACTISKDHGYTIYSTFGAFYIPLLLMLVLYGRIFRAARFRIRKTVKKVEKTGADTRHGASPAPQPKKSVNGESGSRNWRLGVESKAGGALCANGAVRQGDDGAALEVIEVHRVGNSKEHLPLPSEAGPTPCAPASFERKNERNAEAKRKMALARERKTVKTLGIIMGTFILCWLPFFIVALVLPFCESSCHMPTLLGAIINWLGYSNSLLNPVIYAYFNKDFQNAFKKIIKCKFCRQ

[5] = target: T5, Alpha-2A adrenergic receptor (Homo sapiens, UniProt P08913); test: Binding affinity for human cloned Alpha-2A adrenergic receptor
T5 sequence (P08913 whole entry): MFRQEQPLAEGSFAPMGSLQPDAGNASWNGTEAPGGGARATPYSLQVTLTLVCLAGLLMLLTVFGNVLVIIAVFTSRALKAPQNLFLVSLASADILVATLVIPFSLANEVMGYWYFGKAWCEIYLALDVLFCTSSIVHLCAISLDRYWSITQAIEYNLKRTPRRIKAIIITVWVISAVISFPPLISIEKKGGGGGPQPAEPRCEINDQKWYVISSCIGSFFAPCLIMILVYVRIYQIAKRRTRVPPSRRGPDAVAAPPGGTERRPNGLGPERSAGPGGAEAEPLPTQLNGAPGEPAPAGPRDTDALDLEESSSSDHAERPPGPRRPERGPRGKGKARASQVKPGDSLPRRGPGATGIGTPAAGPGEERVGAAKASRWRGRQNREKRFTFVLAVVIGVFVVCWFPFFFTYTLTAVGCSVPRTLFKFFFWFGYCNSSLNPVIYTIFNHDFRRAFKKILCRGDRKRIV

[6] = target: 5-hydroxytryptamine receptor 1D (Homo sapiens, UniProt P28221); test: Binding affinity for human cloned 5-hydroxytryptamine 1D receptor
Chain of 5-hydroxytryptamine receptor 1D (P28221 whole entry): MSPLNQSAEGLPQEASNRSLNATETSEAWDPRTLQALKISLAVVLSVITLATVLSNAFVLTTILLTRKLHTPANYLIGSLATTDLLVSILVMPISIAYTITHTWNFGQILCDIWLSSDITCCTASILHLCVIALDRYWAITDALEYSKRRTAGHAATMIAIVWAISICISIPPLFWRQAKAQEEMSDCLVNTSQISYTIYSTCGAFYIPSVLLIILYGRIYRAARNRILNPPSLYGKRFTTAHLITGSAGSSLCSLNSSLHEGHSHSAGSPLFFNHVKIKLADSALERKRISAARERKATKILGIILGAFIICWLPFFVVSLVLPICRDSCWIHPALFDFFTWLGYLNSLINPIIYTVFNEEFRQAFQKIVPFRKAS

[7] = target: T6, Alpha-2C adrenergic receptor (Homo sapiens, UniProt P18825); test: Binding affinity for human cloned Alpha-2C adrenergic receptor
T6 sequence (P18825 whole entry): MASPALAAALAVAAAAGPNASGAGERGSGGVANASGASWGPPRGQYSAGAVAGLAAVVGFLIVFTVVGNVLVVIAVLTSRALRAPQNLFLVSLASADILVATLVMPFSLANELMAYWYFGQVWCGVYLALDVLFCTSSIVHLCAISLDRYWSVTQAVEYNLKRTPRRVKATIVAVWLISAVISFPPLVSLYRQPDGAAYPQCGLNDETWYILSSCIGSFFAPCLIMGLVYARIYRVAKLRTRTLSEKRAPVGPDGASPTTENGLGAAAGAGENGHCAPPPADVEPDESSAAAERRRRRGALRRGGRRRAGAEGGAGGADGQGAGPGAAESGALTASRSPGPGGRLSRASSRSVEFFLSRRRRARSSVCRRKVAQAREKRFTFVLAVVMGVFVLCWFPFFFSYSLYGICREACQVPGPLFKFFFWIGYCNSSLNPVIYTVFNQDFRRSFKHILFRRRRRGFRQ

[8] = target: Serotonin 3 (5-HT3) receptor; test: Binding affinity for human cloned 5-hydroxytryptamine 3 receptor; format: protein-complex assay
D(2) dopamine receptor = D(2) dopamine receptor (Rattus norvegicus, UniProt P61169); test: Binding affinity for rat Dopamine receptor D2
Chain of D(2) dopamine receptor (P61169 whole entry): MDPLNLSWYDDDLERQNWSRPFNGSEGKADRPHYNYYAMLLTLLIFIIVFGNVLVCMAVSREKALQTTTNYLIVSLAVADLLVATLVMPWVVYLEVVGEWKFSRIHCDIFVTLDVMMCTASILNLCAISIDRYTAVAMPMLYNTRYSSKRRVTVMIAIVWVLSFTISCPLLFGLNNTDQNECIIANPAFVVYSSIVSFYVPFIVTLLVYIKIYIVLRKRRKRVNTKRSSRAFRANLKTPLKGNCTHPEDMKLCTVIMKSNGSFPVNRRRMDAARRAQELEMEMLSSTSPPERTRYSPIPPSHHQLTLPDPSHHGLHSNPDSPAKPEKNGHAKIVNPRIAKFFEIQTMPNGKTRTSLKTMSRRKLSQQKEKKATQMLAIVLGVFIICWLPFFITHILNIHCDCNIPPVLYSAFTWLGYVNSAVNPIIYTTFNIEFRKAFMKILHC

SMILES | ED50 (Rattus norvegicus) | ED50 [1] | IC50 [2] | other results
CN(C)CC1CC2c3c(cccc3C(F)(F)F)Cc3ccccc3N2O1 (configuration not stated) | 2.5 mg/kg | > 2.5 mg/kg | – | –
Cc1cccc2c1Cc1ccccc1C1CC(CN(C)C)ON21 (configuration not stated) | – | > 2.5 mg/kg | – | –
CN(C)CC1CC2c3ccc(Cl)cc3Cc3ccccc3N2O1 (configuration not stated) | > 2.5 mg/kg | – | – | –
CN(C)CC1CC2c3cccc(F)c3Cc3ccccc3N2O1 (configuration not stated) | 2.5 mg/kg | 2.5 mg/kg | 31.6 nM | –
CN(C)CC1CC2c3c(F)cccc3Cc3ccccc3N2O1 (configuration not stated) | > 2.5 mg/kg | – | > 1000 nM | IC50 [3]: > 1000 nM; IC50 (Histamine H1 receptor): > 1000 nM
CN(C)CC1CC2c3cccc(C(F)(F)F)c3Cc3ccccc3N2O1 (configuration not stated) | – | > 2.5 mg/kg | – | –
CN(C)CC1CC2c3cc(F)ccc3Cc3ccc(F)cc3N2O1 (configuration not stated) | 0.04 mg/kg | 0.63 mg/kg | 10.7 nM | IC50 (D(3) dopamine receptor): > 1000 nM; IC50 (D(4) dopamine receptor): > 1000 nM; IC50 [4]: > 1000 nM; IC50 [5]: > 1000 nM; IC50 [6]: > 1000 nM; IC50 [7]: > 1000 nM; pIC50 [8]: < 6
CN(C)CC1CC2c3ccccc3Cc3ccc(F)cc3N2O1 (configuration not stated) | – | 2.5 mg/kg | 1.15 nM | IC50 (D(2) dopamine receptor): > 1000 nM; pIC50 [8]: < 6
Cc1ccc2c(c1)N1OC(CN(C)C)CC1c1ccccc1C2 (configuration not stated) | 0.16 mg/kg | 2.5 mg/kg | – | IC50 (D(3) dopamine receptor): > 1000 nM; IC50 (D(4) dopamine receptor): > 1000 nM; IC50 [4]: > 1000 nM; IC50 [5]: > 1000 nM; IC50 [6]: > 1000 nM; IC50 [7]: > 1000 nM; IC50 (D(2) dopamine receptor): > 1000 nM; pIC50 [8]: < 6
CN(C)CC1CC2c3ccccc3Cc3c(F)cccc3N2O1 (configuration not stated) | – | 2.5 mg/kg | – | –
Cc1cccc2c1C1CC(CN(C)C)ON1c1ccccc1C2 (configuration not stated) | – | > 2.5 mg/kg | – | –
CN(C)CC1CC2c3ccccc3Cc3cccc(Cl)c3N2O1 (configuration not stated) | – | > 2.5 mg/kg | – | –
CN(C)CC1CC2c3ccccc3Cc3ccc(Br)cc3N2O1 (configuration not stated) | – | 2.5 mg/kg | – | –
COc1ccc2c(c1)C1CC(CN(C)C)ON1c1ccccc1C2 (configuration not stated) | – | > 2.5 mg/kg | – | –
CN(C)CC1CC2c3ccccc3Cc3cc(F)ccc3N2O1 (configuration not stated) | – | 2.5 mg/kg | – | –
CN(C)CC1CC2c3ccccc3Cc3ccccc3N2O1 (configuration not stated) | 0.04 mg/kg | 0.63 mg/kg | – | –
CN(C)CC1CC2c3cc(C(F)(F)F)ccc3Cc3ccccc3N2O1 (configuration not stated) | 2.5 mg/kg | > 2.5 mg/kg | > 1000 nM | IC50 [3]: > 1000 nM; IC50 (Histamine H1 receptor): > 1000 nM
Cc1ccc2c(c1)Cc1ccccc1N1OC(CN(C)C)CC21 (configuration not stated) | – | 2.5 mg/kg | 10.5 nM | –
CN(C)CC1CC2c3ccccc3Cc3ccc(Cl)cc3N2O1 (configuration not stated) | 0.16 mg/kg | 0.63 mg/kg | – | pIC50 [8]: 6.32
CN(C)CC1CC2c3cccc(Cl)c3Cc3ccccc3N2O1 (configuration not stated) | – | > 2.5 mg/kg | > 1000 nM | IC50 [3]: > 1000 nM; IC50 (Histamine H1 receptor): > 1000 nM
CN(C)CC1CC2c3cc(F)ccc3Cc3ccccc3N2O1 (configuration not stated) | > 2.5 mg/kg | > 2.5 mg/kg | – | –
CN(C)CC1CC2c3ccccc3Cc3ccc(-c4ccccc4)cc3N2O1 (configuration not stated) | > 2.5 mg/kg | > 2.5 mg/kg | – | –

Reference: ChEMBL document CHEMBL1135381, “Synthesis and structure-activity relationship of 2-(aminoalkyl)-2,3,3a,8-tetrahydrodibenzo[c,f]isoxazolo[2,3-a]azepine derivatives: a novel series of 5-HT(2A/2C) receptor antagonists. Part 2” (Bioorg Med Chem Lett, 2002)
